Results: US20100041712A1, “SUBSTITUTED IMIDAZOLE COMBINATIONS” (PFIZER INC., priority 2008, published 2010)

Tested on: Ctenocephalides felis
Test: In-vivo study: topical spot-on formulations on beagle dogs infested with fleas on Day 30
Conditions: compound alone, 30 mg/kg topical, Day 30 infestation (Table 1)
Protocol: In-vivo studies were conducted in compliance with International Cooperation on Harmonisation of Technical Requirements for Registration of Veterinary Products (VICH) and Good Clinical Practice (GCP) principles and practices.
In one in-vivo study, topical spot-on formulations were prepared using dipropylene glycol monomethyl ether (DPGMME) and ethanol (80:20% v/v) and butylated hydroxyl anisol (BHA) 0.1% w/v. Control was vehicle. Treatment T02 was 30 mg/kg (150 mg/mL) compound (1A1); T03 was 20 mg/kg (100 mg/mL) compound (1A1), 6.7 mg/kg (33.5 mg/mL) fipronil, and 6 mg/kg (30 mg/mL) s-methoprene; T04 was 30 mg/kg (150 mg/mL) compound (1A1), 6.7 mg/kg (50.4 mg/mL) fipronil, and 6 mg/kg (45 mg/mL) s-methoprene; and T05 was 30 mg/kg (150 mg/mL) compound (1A1), 6.7 mg/kg (33.5 mg/mL) fipronil and 6 mg/kg (30 mg/mL) s-methoprene. A total of 40 beagle dogs (8 dogs/treatment group) were used. Dogs were individually housed. Treatments were administered on Day 0. On Day 30, dogs were infested with 100 Ctenocephalides felis unfed adult fleas. Dead and non-moving fleas were counted at 24 and 48 hours after infestation (Table 1).

Compound: Cc1cccc([C@H](C)c2ncc[nH]2)c1C [compound (1A1), 2-[(1S)-1-(2,3-dimethylphenyl)ethyl]-1H-imidazole]
- intrinsic flea activity: lacks intrinsic flea activity
